Reference: US4443436A, “C-20-Modified macrolide derivatives of the macrolide antibiotics tylosin, desmycosin, macrocin, and lactenocin” (Eli Lilly and Company, priority 1982, dated 1984)
Converted amounts (≈) assume the structure as drawn. Read-outs that look alike come from different tables or passages of the source.

How the values were obtained:
[1] = system: Staphylococcus aureus X1.1; assay: MIC, standard agar-dilution assay, Staphylococcus aureus X1.1; type: cell-based
[2] = system: Staphylococcus aureus V41; assay: MIC, standard agar-dilution assay, Staphylococcus aureus V41; type: cell-based
[3] = system: Staphylococcus aureus X400; assay: MIC, standard agar-dilution assay, Staphylococcus aureus X400; type: cell-based
[4] = system: Staphylococcus aureus S13E; assay: MIC, standard agar-dilution assay, Staphylococcus aureus S13E; type: cell-based
[5] = system: Staphylococcus epidermidis EPI1; assay: MIC, standard agar-dilution assay, Staphylococcus epidermidis EPI1; type: cell-based
[6] = system: Streptococcus pyogenes C203; assay: MIC, standard agar-dilution assay, Streptococcus pyogenes C203; type: cell-based
[7] = system: Streptococcus Group D X66; assay: MIC, standard agar-dilution assay, Streptococcus Group D X66; type: cell-based
Streptococcus Group 9960 = assay: MIC, standard agar-dilution assay, Streptococcus Group 9960; type: cell-based; details: Streptococcus Group 9960, agar dilution
[8] = system: Haemophilus influenzae Holt; assay: MIC, standard agar-dilution assay, Haemophilus influenzae Holt; type: cell-based; details: Haemophilus influenzae Holt, ampicillin-sensitive strain
[9] = system: Haemophilus influenzae R252; assay: MIC, standard agar-dilution assay, Haemophilus influenzae R252; type: cell-based; details: Haemophilus influenzae R252, ampicillin-resistant strain
Staphylococcus aureus = assay: MIC, broth-dilution microtiter test, Staphylococcus aureus; type: cell-based
Text: (§1) The MIC's in Table X were obtained using conventional broth-dilution microtiter tests.

Streptococcus bovis 80 = assay: MIC, broth-dilution microtiter test, Streptococcus bovis 80; type: cell-based; details: Streptococcus equinus; Streptococcus bovis 80; broth-dilution microtiter; read-out: MIC
Text: as §1

[10] = system: Pasteurella multocida 17E; assay: MIC, broth-dilution microtiter test, Pasteurella multocida 17E; type: cell-based; details: Pasteurella multocida 17E; bovine isolate; broth-dilution microtiter; read-out: MIC
Text: as §1

[11] = system: Pasteurella multocida 60A; assay: MIC, broth-dilution microtiter test, Pasteurella multocida 60A; type: cell-based; details: Pasteurella multocida 60A; avian isolate; broth-dilution microtiter; read-out: MIC
Text: as §1

[12] = system: Pasteurella hemolytica 22C; assay: MIC, broth-dilution microtiter test, Pasteurella hemolytica 22C; type: cell-based; details: Pasteurella hemolytica 22C; broth-dilution microtiter; read-out: MIC
Text: as §1

Mycoplasma gallisepticum = assay: MIC, broth-dilution microtiter test, Mycoplasma gallisepticum; type: cell-based; details: Mycoplasmoides gallisepticum
Text: as §1

Mycoplasma hyorhinis = assay: MIC, broth-dilution microtiter test, Mycoplasma hyorhinis; type: cell-based; details: Mycoplasma
Text: as §1

[13] = system: Streptococcus pyogenes C203; assay: In vivo protection of mice experimentally infected with S. pyogenes C203; details: Streptococcus pyogenes, mice, doses given 1 and 4 hours post-infection
Protocol: The C-20 modified derivatives of this invention have shown in vivo antimicrobial activity against experimentally-induced infections in laboratory animals. When two doses of test compound were administered to mice experimentally infected with S. pyogenes C203, the activity observed was measured as an ED50 value [effective dose in mg/kg to protect 50% of the test animals: see Warren Wick, et al., J. Bacteriol. 81, 233-235 (1961)].

[14] = system: Streptococcus pneumoniae Park I; assay: microbe, parasite or virus in culture; type: cell-based
[15] = system: Staphylococcus epidermidis EPI2; assay: MIC, standard agar-dilution assay, Staphylococcus epidermidis EPI2; type: cell-based; details: Staphylococcus epidermidis EPI2, agar dilution
[16] = Staphylococcus epidermidis, EPI1
[17] = Streptococcus pyogenes C203, agar dilution, read-out: MIC
[18] = Streptococcus Group D X66, agar dilution, read-out: MIC
[19] = C203, sc, subcutaneous, read-out: ED50, Subcutaneous
[20] = C203, oral, read-out: ED50, Oral
[21] = Streptococcus pneumoniae Park I, agar dilution, read-out: MIC

Row | SMILES | MIC ([1]; Staphylococcus aureus, X1.1) | MIC ([2]; Staphylococcus aureus, V41) | MIC ([4]; Staphylococcus aureus, S13E) | MIC [5, 16] | MIC [6, 17] | MIC [7, 18] | MIC (Streptococcus Group 9960; GROUP9960, read-out: MIC) | MIC ([8]; read-out: MIC) | MIC ([9]; read-out: MIC) | MIC (Streptococcus bovis 80) | MIC [10] | MIC [11] | MIC [12] | MIC (Mycoplasma gallisepticum) | MIC (Mycoplasma hyorhinis) | ED50 [13, 19] | ED50 [13, 20] | MIC ([3]; Staphylococcus aureus, X400) | MIC [14, 21] | MIC ([15]; read-out: MIC) | also measured
1 | CCC1OC(=O)CC(O)C(C)C(OC2OC(C)C(OC3CC(C)(O)C(O)C(C)O3)C(N(C)C)C2O)C(CCOc2ccccc2)CC(C)C(=O)C=CC(C)=CC1COC1OC(C)C(O)C(OC)C1OC (stereo not shown) [Compound 4, 20-DH-20-O-Phenyltylosin] | 1 mg/L (≈ 1.01 µM) | 1 mg/L (≈ 1.01 µM) | 1 mg/L (≈ 1.01 µM) | 1 mg/L (≈ 1.01 µM) | 2 mg/L (≈ 2.01 µM) | 128 mg/L (≈ 129 µM) | 128 mg/L (≈ 129 µM) | > 128 mg/L | > 128 mg/L | 12.5 mg/L (≈ 12.6 µM) | > 50 mg/L | > 50 mg/L | > 50 mg/L | 1.56 mg/L (≈ 1.57 µM) | 50 mg/L (≈ 50.3 µM) | > 6.3 mg/kg | 35 mg/kg |  |  |  | MIC ([3]; Staphylococcus aureus X400, methicillin-resistant strain, agar dilution, read-out: MIC): 2 mg/L (≈ 2.01 µM); MIC (Staphylococcus aureus; broth-dilution microtiter, read-out: MIC): 3.12 mg/L (≈ 3.14 µM)
2 | CCC1OC(=O)CC(O)C(C)C(OC2OC(C)C(OC3CC(C)(O)C(O)C(C)O3)C(N(C)C)C2O)C(CCCl)CC(C)C(=O)C=CC(C)=CC1COC1OC(C)C(O)C(OC)C1OC (stereo not shown) [Compound 7, 20-DH-DO-20-Chlorotylosin] | 1 mg/L (≈ 1.07 µM) | 1 mg/L (≈ 1.07 µM) | 1 mg/L (≈ 1.07 µM) | 1 mg/L (≈ 1.07 µM) | 2 mg/L (≈ 2.14 µM) |  | > 128 mg/L | > 128 mg/L | > 128 mg/L | 12.5 mg/L (≈ 13.3 µM) | > 50 mg/L | > 50 mg/L | > 50 mg/L | 0.78 mg/L (≈ 0.833 µM) | 50 mg/L (≈ 53.4 µM) | > 6.3 mg/kg | 11 mg/kg | 2 mg/L (≈ 2.14 µM) | 32 mg/L (≈ 34.2 µM) |  | MIC [7]: > 128 mg/L; MIC (Staphylococcus aureus): 3.12 mg/L (≈ 3.33 µM)
3 | CCC1OC(=O)CC(O)C(C)C(OC2OC(C)C(OC3CC(C)(O)C(O)C(C)O3)C(N(C)C)C2O)C(CCOc2ccc(-c3ccccc3)cc2)CC(C)C(=O)C=CC(C)=CC1COC1OC(C)C(O)C(OC)C1OC (stereo not shown) [Compound 18, 20-DH-20-O-(p-Phenylphenyl)tylosin] | 2 mg/L (≈ 1.87 µM) | 2 mg/L (≈ 1.87 µM) | 2 mg/L (≈ 1.87 µM) | 2 mg/L (≈ 1.87 µM) | 2 mg/L (≈ 1.87 µM) | 8 mg/L (≈ 7.47 µM) | > 128 mg/L | > 128 mg/L | > 128 mg/L |  |  |  |  |  |  |  |  | 2 mg/L (≈ 1.87 µM) | 1 mg/L (≈ 0.934 µM) | 0.5 mg/L (≈ 0.467 µM) | 
4 | CCC1OC(=O)CC(O)C(C)C(OC2OC(C)C(OC3CC(C)(O)C(O)C(C)O3)C(N(C)C)C2O)C(CCOc2ncnc3ccccc23)CC(C)C(=O)C=CC(C)=CC1COC1OC(C)C(O)C(OC)C1OC (stereo not shown) [Compound 19a] |  |  |  |  |  |  |  |  |  |  |  |  |  |  |  |  |  |  |  |  | MIC ([1]; Staphylococcus aureus X1.1, agar dilution): 0.5 mg/L (≈ 0.478 µM); MIC ([2]; Staphylococcus aureus V41, penicillin-resistant strain, agar dilution): 0.5 mg/L (≈ 0.478 µM); MIC ([3]; Staphylococcus aureus X400, methicillin-resistant strain, agar dilution): 1 mg/L (≈ 0.956 µM); MIC ([4]; Staphylococcus aureus S13E, agar dilution): 0.5 mg/L (≈ 0.478 µM); MIC ([5]; Staphylococcus epidermidis EPI1, agar dilution): 1 mg/L (≈ 0.956 µM); MIC [15]: 0.5 mg/L (≈ 0.478 µM); MIC ([6]; Streptococcus pyogenes C203, agar dilution): 4 mg/L (≈ 3.82 µM); MIC ([14]; Streptococcus pneumoniae Park I, agar dilution): 4 mg/L (≈ 3.82 µM); MIC ([7]; Streptococcus Group D X66, agar dilution): 32 mg/L (≈ 30.6 µM); MIC (Streptococcus Group 9960): 64 mg/L (≈ 61.2 µM); MIC ([8]; agar dilution): 128 mg/L (≈ 122 µM); MIC ([9]; agar dilution): -- (Not active at 128 mcg/ml, the highest level tested)
5 | CCC1OC(=O)CC(O)C(C)C(OC2OC(C)C(O)C(N(C)C)C2O)C(CCOCCc2ccccc2)CC(C)C(=O)C=CC(C)=CC1COC1OC(C)C(O)C(OC)C1OC (stereo not shown) [Compound 31, 20-DH-20-O-(Phenethyl)desmycosin] | 0.25 mg/L (≈ 0.285 µM) | 0.25 mg/L (≈ 0.285 µM) | 0.25 mg/L (≈ 0.285 µM) | 0.25 mg/L (≈ 0.285 µM) |  | 8 mg/L (≈ 9.11 µM) | 16 mg/L (≈ 18.2 µM) |  |  |  |  |  |  |  |  |  |  | 0.5 mg/L (≈ 0.569 µM) |  | 0.12 mg/L (≈ 0.137 µM) | MIC ([6]; Streptococcus pyogenes, C203): 1 mg/L (≈ 1.14 µM); MIC ([14]; Streptococcus pneumoniae): 0.25 mg/L (≈ 0.285 µM)
